US20130005696A1, “BUFADIENOLIDE DERIVATIVES, PREPARING PROCESS THEREOF, COMPOSITION COMPRISING THE SAME AND THE USE THEREOF” (priority 2011, published 2013)

Columns and labels:
[1] = tested on: human-derived lung cancer H460 xenograft; assay: Therapeutic effect against H460 xenograft in nude mice; format: in vivo, Balb/c nude mice; conditions: QOD × 21 d
Method: (§1) This experiment is to investigate the in vivo inhibitory effect of II1E-01.HCl on growth of human-derived hepatic carcinoma HepG2 cell, human-derived breast carcinoma MDA-MB-231 cell, human-derived lung carcinoma H460 cell, human-derived colon carcinoma HCT-116 cell, human-derived […] MV-4-11 cell xenografts in nude mice.
(§2) Formulation of solvent control (5% anhydrous ethanol & 5% aqueous glucose solution): 2.5 mL anhydrous ethanol was added into a 50 mL tube, followed by addition of 47.5 mL 5% glucose solution for injection followed by shaking, and stored at room temperature before use.
(§3) Formulation of the preparations of the compounds to be tested: formulations with concentrations of 0.4 mg/mL and 0.6 mg/mL were prepared respectively. An appropriate amount of II1E-01.HCl was weighted and put into a 50 mL tube, followed by addition of corresponding volume of solvent to get the desired concentration and mixed using a vortex mixer. After the solid was dissolved completely, the solution was subpackaged into 4 mL vials and stored at refrigerated condition (2-8° C.) until use.
(§4) Experimental animals: Balb/c nude mice (male, six weeks old).
NCI-H460 xenograft model was established by tumor implantation. 19 days after the implantation, the tumor size reached about 210 mm^3. The mice bearing the tumor were grouped by randomized block method according to the tumor size into 3 groups, which contain 10 mice in each group and include the group of solvent control, and groups of middle (4 mg/kg) and high (6 mg/kg) dosages of the testing compound II1E-01.HCl. In the solvent control group, 5% glucose solution was administered intravenously at tail once every other day (QOD). The testing compound was administered intravenously at tail once every other day (QOD). The animals were given the drugs for three weeks, during which the growth of tumor and the body weight of the mice were observed.
After continuously administering for 21 days (the 40th day after the implantation), the tumor weight and inhibition rate were calculated, and results are listed in Table 7.

[2] = tested on: human-derived breast carcinoma MDA-MB-231 xenograft; assay: Therapeutic effect against MDA-MB-231 xenograft in nude mice; format: in vivo, Balb/c nude mice; conditions: QOD × 7 d
Method: as §1, §2, §3, §4
19 days after MDA-MB-231 cells were implanted, the tumor size reached about 617 mm^3. The mice bearing the tumor were grouped and administered. The groups of II1E-01.HCl were administered once every other day (QOD), and the solvent control group was administered with the solvent control solution. After completion of the experiment, the tumor weight and the inhibition rate were calculated, and the results are summarized in Table 6. The high and middle dosage groups have significant inhibitory activities against the growth of MDA-MB-231 xenograft, and the effect depends on the amount obviously.
The tumor in this experiment had been allowed to grow to reach a relative bigger size before drug administration (the tumor size before drug administration was about 600 mm^3 while generally the tumor size was only 200-300 mm^3 before drug administration), which corresponds to a middle- or advanced-stage cancer.

[3] = tested on: HeLa human cervical carcinoma cell line; assay: In vitro antitumor activity assay (SRB), HeLa; format: cell-based; conditions: read-out: IC50, inhibitory activity on cell proliferation of HeLa cell line
How it was run: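 Log-phase cells attached 24 h, then exposed in triplicate to compounds at 10 μM–0.1 nM in saline for 72 h at 37 °C in RPMI-1640. TCA-fixed, SRB-stained, A515 read; percent inhibition versus saline control, IC50 fitted.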

| Structure (SMILES) | Tumor Weight(g) Mean ± SE ([1]; 4 mg/kg iv) [g] | Inhibition Rate (%) ([1]; 4 mg/kg iv, 4 mg/kg) | Inhibition Rate (%) ([1]; 4 mg/kg iv, listed as II1E-01.HCl, 4 mg/kg) | Tumor Weight(g) Mean ± SE ([1]; 6 mg/kg iv) [g] | Inhibition Rate (%) ([1]; 6 mg/kg iv, 6 mg/kg) | Inhibition Rate (%) ([1]; 6 mg/kg iv, listed as II1E-01.HCl, 6 mg/kg) | Inhibition Rate (%) ([2]; 2 mg/kg iv) | Tumor Weight(g) Mean ± SE ([2]; 2 mg/kg iv) [g] | Inhibition Rate (%) ([2]; 4 mg/kg iv) | Tumor Weight(g) Mean ± SE ([2]; 4 mg/kg iv) [g] | Inhibition Rate (%) ([2]; 6 mg/kg iv) | Tumor Weight(g) Mean ± SE ([2]; 6 mg/kg iv) [g] | IC50 [3] [nM] |
| --- | --- | --- | --- | --- | --- | --- | --- | --- | --- | --- | --- | --- | --- |
| C[C@]12CC[C@H](OC(=O)NC3CCNCC3)C[C@H]1CC[C@@H]1[C@@H]2CC[C@]2(C)[C@@H](c3ccc(=O)oc3)CC[C@]12O.Cl [II1E-01•HCl] | 0.5125 ± 0.0307 | 61.94 | 61.94 | 0.3246 ± 0.0692 | 75.90 | 75.90 | 16.36 | 2.6063 ± 0.2731 | 33.99 | 2.0569 ± 0.1340 | 52.23 | 1.4887 ± 0.1763 |  |
| C[C@]12CC[C@H](O)C[C@H]1CC[C@@H]1[C@@H]2CC[C@]2(C)[C@@H](c3ccc(=O)oc3)CC[C@]12O [bufalin, reference compound] |  |  |  |  |  |  |  |  |  |  |  |  | 7.27 |
